TGI data for 10 compounds are collected here from PubChem BioAssay (NCI).

Test systems include DU-145 prostate; HCT-15 colon; CAKI-1 renal; UO-31 renal; MOLT-4 leukemia; MALME-3M melanoma; PC-3 prostate; COLO 205 colon; RPMI-8226 leukemia; SF-268 CNS; NCI-H23 lung; SK-MEL-28 melanoma; HCC-2998 colon; HL-60(TB) leukemia; TK-10 renal; T-47D breast; OVCAR-8 ovarian; A549 NSCLC; NCI-H460 lung; NCI/ADR-RES ovarian.
Common to all, as to assay: NCI tumour cell line growth inhibition, 48 h

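Compound exposure: 48 hours, 5 concentrations, 96-well plates. TGI is the concentration that stops growth completely.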

Turning to `Cc1ccc(C(=O)Nc2ccc(CP(=O)(O)O)cc2)cc1NC(=O)Nc1cc(C(=O)Nc2ccc(CP(=O)(O)O)cc2)ccc1C`, the TGI with DU-145 prostate, with HCT-15 colon, in the experiment with CAKI-1 renal, in the experiment with UO-31 renal, in the experiment on MOLT-4 leukemia and with MALME-3M melanoma was more than 100 µM each time. Also, the TGI with PC-3 prostate, in the experiment on COLO 205 colon, in the experiment on RPMI-8226 leukemia, in the experiment with SF-268 CNS, in the experiment with NCI-H23 lung and in the experiment on SK-MEL-28 melanoma was more than 100 µM each time. Moreover, the TGI with HCC-2998 colon, in the experiment on HL-60(TB) leukemia, with TK-10 renal, with T-47D breast, in the experiment on OVCAR-8 ovarian and in the experiment with A549 NSCLC was more than 100 µM in each case. Besides, the TGI in the experiment on NCI-H460 lung and in the experiment on NCI/ADR-RES ovarian was more than 100 µM each time.

`[O-][n+]1onc2c1-c1nonc1CC2`: the TGI in the experiment with DU-145 prostate is more than 100 µM; in the experiment on HCT-15 colon, more than 100 µM; in the experiment on CAKI-1 renal, more than 100 µM; with UO-31 renal it was more than 100 µM; in the experiment on MOLT-4 leukemia, more than 100 µM; with MALME-3M melanoma it was 54 µM. For the same compound, the TGI was 77.8 µM in the experiment with PC-3 prostate; more than 100 µM in the experiment with COLO 205 colon; more than 100 µM in the experiment with RPMI-8226 leukemia; more than 100 µM with SF-268 CNS; 61.4 µM with NCI-H23 lung; more than 100 µM with SK-MEL-28 melanoma. The TGI in the experiment on HCC-2998 colon is more than 100 µM; in the experiment with HL-60(TB) leukemia, 96.2 µM; in the experiment on TK-10 renal it was 56.4 µM; with T-47D breast it was more than 100 µM; with OVCAR-8 ovarian it was more than 100 µM; in the experiment on A549 NSCLC it was more than 100 µM. The TGI with NCI-H460 lung and with NCI/ADR-RES ovarian was more than 100 µM throughout.

Turning to `CC(C)(C)C1=NN=C2c3ccccc3C(=O)C21` (stereo not given), the TGI with DU-145 prostate is more than 100 µM; in the experiment on HCT-15 colon, more than 100 µM; with CAKI-1 renal it was more than 100 µM; with UO-31 renal, more than 100 µM; with MOLT-4 leukemia it was 85 µM; with MALME-3M melanoma, more than 100 µM. Also, the TGI in the experiment on PC-3 prostate, in the experiment on COLO 205 colon, with RPMI-8226 leukemia, with SF-268 CNS, with NCI-H23 lung and with SK-MEL-28 melanoma was more than 100 µM each time. Besides, the TGI with HCC-2998 colon, in the experiment on HL-60(TB) leukemia, with TK-10 renal, in the experiment with T-47D breast, in the experiment with OVCAR-8 ovarian and in the experiment with A549 NSCLC was more than 100 µM each time. In addition, the TGI in the experiment with NCI-H460 lung and in the experiment on NCI/ADR-RES ovarian was more than 100 µM each time.

`CN(C)C1COC2Cc3ccccc3C1O2` (stereo not given): the TGI in the experiment with DU-145 prostate, in the experiment on HCT-15 colon, in the experiment on CAKI-1 renal, with UO-31 renal, in the experiment on MOLT-4 leukemia and with MALME-3M melanoma was more than 100 µM each time. For the same compound, the TGI with PC-3 prostate, in the experiment on COLO 205 colon, with RPMI-8226 leukemia, in the experiment with SF-268 CNS, with NCI-H23 lung and with SK-MEL-28 melanoma was more than 100 µM in each case. Further, the TGI in the experiment with HCC-2998 colon, with HL-60(TB) leukemia, with TK-10 renal, in the experiment with T-47D breast, with OVCAR-8 ovarian and with A549 NSCLC was more than 100 µM in each case. For the same compound, the TGI in the experiment on NCI-H460 lung and with NCI/ADR-RES ovarian was more than 100 µM in each case.

For the compound `CC(=O)O[C@H]1C(=O)[C@@]2(C)[C@H]([C@H](OC(=O)c3ccncc3)[C@]3(O)C[C@H](OC(=O)[C@H](O)[C@@H](NC(=O)c4ccccc4)c4ccccc4)C(C)=C1C3(C)C)[C@]1(OC(C)=O)CO[C@@H]1C[C@@H]2O`, the TGI in the experiment with DU-145 prostate, in the experiment with HCT-15 colon, in the experiment on CAKI-1 renal, in the experiment on UO-31 renal, in the experiment on MOLT-4 leukemia and in the experiment with MALME-3M melanoma was more than 25 µM in each case. Further, the TGI is more than 21 µM in the experiment on PC-3 prostate; more than 20.1 µM with COLO 205 colon; 6.5 µM with RPMI-8226 leukemia; more than 25 µM with SF-268 CNS; more than 25 µM in the experiment on NCI-H23 lung; more than 25 µM in the experiment on SK-MEL-28 melanoma. Further, the TGI in the experiment on HCC-2998 colon is 11 µM; with HL-60(TB) leukemia, 1.63 µM; in the experiment on TK-10 renal, more than 25 µM; with T-47D breast, more than 25 µM; in the experiment on OVCAR-8 ovarian, more than 25 µM; with A549 NSCLC, more than 25 µM. Moreover, the TGI in the experiment on NCI-H460 lung and in the experiment on NCI/ADR-RES ovarian was more than 25 µM each time.

With `Clc1ccc(CSCc2ccc(Cl)cc2Cl)c(Cl)c1`, the TGI with DU-145 prostate is more than 100 µM; in the experiment with HCT-15 colon it was more than 100 µM; with CAKI-1 renal, more than 100 µM; in the experiment with UO-31 renal, more than 100 µM; in the experiment with MOLT-4 leukemia it was more than 100 µM; in the experiment with MALME-3M melanoma, 72.5 µM. The TGI in the experiment with PC-3 prostate was more than 100 µM; with COLO 205 colon it was more than 100 µM; in the experiment on RPMI-8226 leukemia, 88.6 µM; with SF-268 CNS, more than 100 µM; with NCI-H23 lung, more than 100 µM; in the experiment on SK-MEL-28 melanoma, more than 100 µM. The TGI in the experiment with HCC-2998 colon is 98.2 µM; in the experiment with HL-60(TB) leukemia it was more than 100 µM; in the experiment on TK-10 renal it was more than 100 µM; with T-47D breast it was more than 100 µM; in the experiment on OVCAR-8 ovarian, more than 100 µM; in the experiment with A549 NSCLC it was more than 100 µM. Also, the TGI in the experiment on NCI-H460 lung and with NCI/ADR-RES ovarian was more than 100 µM in each case.

Consider `O=C1/C(=C/c2cccc([N+](=O)[O-])c2)N=C(c2ccccc2)N1c1ccc2c(c1)Sc1cc(N3C(=O)/C(=C/c4cccc([N+](=O)[O-])c4)N=C3c3ccccc3)ccc1N2`, for which the TGI with DU-145 prostate is more than 100 µM; in the experiment with HCT-15 colon, more than 100 µM; in the experiment with CAKI-1 renal, 54 µM; in the experiment with UO-31 renal, more than 100 µM; in the experiment with MOLT-4 leukemia it was more than 100 µM; with MALME-3M melanoma, 41.1 µM. Moreover, the TGI in the experiment with PC-3 prostate was 52.8 µM; in the experiment with COLO 205 colon, more than 100 µM; with RPMI-8226 leukemia it was more than 100 µM; in the experiment with SF-268 CNS it was 40.5 µM; in the experiment on NCI-H23 lung, 92.4 µM; with SK-MEL-28 melanoma it was more than 100 µM. For the same compound, the TGI in the experiment on HCC-2998 colon was more than 100 µM; with HL-60(TB) leukemia it was 64.6 µM; with TK-10 renal it was 39.4 µM; in the experiment with T-47D breast, 80 µM; with OVCAR-8 ovarian it was 78.8 µM; with A549 NSCLC, more than 100 µM. Besides, the TGI with NCI-H460 lung and in the experiment on NCI/ADR-RES ovarian was more than 100 µM throughout.

Consider `CCOC(=O)C1C(=O)CC(C)(O)C(C(=O)OCC)C1c1ccc(OC)cc1` (stereo not given), for which the TGI with DU-145 prostate, with HCT-15 colon, in the experiment on CAKI-1 renal, with UO-31 renal, in the experiment on MOLT-4 leukemia and with MALME-3M melanoma was more than 100 µM each time. In addition, the TGI with PC-3 prostate, with COLO 205 colon, in the experiment on RPMI-8226 leukemia, in the experiment with SF-268 CNS, in the experiment with NCI-H23 lung and in the experiment with SK-MEL-28 melanoma was more than 100 µM in each case. Further, the TGI in the experiment with HCC-2998 colon, with HL-60(TB) leukemia, in the experiment on TK-10 renal, in the experiment with T-47D breast, with OVCAR-8 ovarian and in the experiment with A549 NSCLC was more than 100 µM each time. The TGI with NCI-H460 lung and with NCI/ADR-RES ovarian was more than 100 µM each time.

On to `CC(C)[C@H](NC(=O)[C@@H](O)[C@H](N)Cc1ccccc1)C(=O)N[C@@H](Cc1ccccc1)C(=O)O`, for which the TGI in the experiment with DU-145 prostate, with HCT-15 colon, in the experiment on CAKI-1 renal, in the experiment on UO-31 renal, with MOLT-4 leukemia and with MALME-3M melanoma was more than 100 µM throughout. Moreover, the TGI in the experiment with PC-3 prostate, with COLO 205 colon, in the experiment with RPMI-8226 leukemia, with SF-268 CNS, in the experiment on NCI-H23 lung and in the experiment on SK-MEL-28 melanoma was more than 100 µM in each case. Moreover, the TGI with HCC-2998 colon, in the experiment with HL-60(TB) leukemia, in the experiment with TK-10 renal, with T-47D breast, with OVCAR-8 ovarian and in the experiment with A549 NSCLC was more than 100 µM in each case. The TGI in the experiment with NCI-H460 lung and with NCI/ADR-RES ovarian was more than 100 µM throughout.

In the case of `N#C/C(N)=C(\C#N)N=CNc1ccccc1N`, the TGI in the experiment on DU-145 prostate, in the experiment with HCT-15 colon, in the experiment on CAKI-1 renal, in the experiment on UO-31 renal, in the experiment on MOLT-4 leukemia and in the experiment with MALME-3M melanoma was more than 100 µM each time. The TGI with PC-3 prostate, in the experiment on COLO 205 colon, in the experiment on RPMI-8226 leukemia, in the experiment on SF-268 CNS, with NCI-H23 lung and with SK-MEL-28 melanoma was more than 100 µM each time. The TGI in the experiment on HCC-2998 colon, in the experiment with HL-60(TB) leukemia, in the experiment on TK-10 renal, in the experiment on T-47D breast, in the experiment with OVCAR-8 ovarian and in the experiment with A549 NSCLC was more than 100 µM throughout. The TGI in the experiment with NCI-H460 lung and in the experiment on NCI/ADR-RES ovarian was more than 100 µM throughout.
